According to patent publication US20130324489A1, “NEW ANTIFUNGAL COMPOSITIONS” (DSM IP ASSETS B.V., priority 2011, published 2013):

What was measured:
Botrytis cinerea = assay: In vitro antifungal activity, 96-well microtiter plates; format: cell-based; conditions: 1.25 ppm natamycin, 25° C.
Experimental: The following compositions were tested: […] After incubation of the microtiter plates at 25° C., the in vitro antifungal activity (%) of the individual active ingredients was assessed by calculating the reduction in mould growth observed in the presence of the active ingredient in comparison to the mould growth observed in the absence of the active ingredient. The expected antifungal activity (E in %) of the active ingredient combination was calculated according to the Colby equation (Colby, 1967): […] wherein X and Y are the observed antifungal activities (in %) of the individual active ingredients X and Y, respectively.

Penicillium italicum = assay: as above; format: cell-based; conditions: 0.63 ppm natamycin, 5.0 ppm vinclozolin, 10 ppm procymidone, alone or natamycin + one of them, 25° C., day 3
Experimental: Subsequently, 100 μl of a Botrytis cinerea suspension prepared in PCB medium was used to inoculated each well with 2.5×10^3 spores/ml.
After incubation of the microtiter plates at 25° C., the in vitro antifungal activity (%) of the individual active ingredients was assessed by calculating the reduction in mould growth observed in the presence of the active ingredient in comparison to the mould growth observed in the absence of the active ingredient. The expected antifungal activity (E in %) of the active ingredient combination was calculated according to the Colby equation (Colby, 1967): […]
wherein X and Y are the observed antifungal activities (in %) of the individual active ingredients X and Y, respectively. If the observed antifungal activity (O in %) of the combination exceeds the expected antifungal activity (E in %) of the combination and the resulting synergy factor O/E is thus >1.0, the combined application of the active ingredients leads to a synergistic antifungal effect.
The experiment was conducted as described in Example 10, except for the fact that the following compositions were tested:
Furthermore, Penicillium italicum was used for inoculation. The antifungal activity (in %) of the individual and combined active ingredients was determined according to the method described in Example 10.

SMILES | Observed antifungal activity O (%) (Botrytis cinerea; 3.0 ppm iprodione or both, day 5) | Observed antifungal activity O (%) (Botrytis cinerea; 8.0 ppm iprodione or both, day 12) | Observed antifungal activity O (%) (Penicillium italicum) | Observed antifungal activity O (%) (Botrytis cinerea; 1.5 ppm vinclozolin, 1.25 ppm procymidone, alone or natamycin + one of them, day 3) | Observed antifungal activity O (%) (Botrytis cinerea; 1.5 ppm vinclozolin, 1.25 ppm procymidone, alone or natamycin + one of them, day 6) | Observed antifungal activity O (%) (Botrytis cinerea; 7.0 ppm vinclozolin, 2.0 ppm procymidone, alone or natamycin + one of them, day 10)
CC(C)NC(=O)N1CC(=O)N(c2cc(Cl)cc(Cl)c2)C1=O [Iprodione, iprodione] | 50% | 50% |  |  |  | 
C=CC1(C)OC(=O)N(c2cc(Cl)cc(Cl)c2)C1=O (stereo not drawn) [Vinclozolin, vinclozolin] |  |  | 0% | 0% | 0% | 0%
